“And” between values parts separate entries of the source, which are not always exact repeats. Identical values can stand only once. Like-named read-outs stand apart in the source and are kept apart here.
Experiments:
ANR-Y1 = assay: Fluorescence titration of ANR-Y1 suspension with analyte, 1:1 single-site binding fit
ANR-L1 = assay: Fluorescence titration of ANR-L1 suspension with analyte, 1:1 single-site binding fit; settings: for factor weaker binding in the presence of 50 mM Trp than in the absence: ANR-L1, 50 mM Trp as potential competitor
[1] = cucurbit[7]uril, ref. [9]; read-out: Kd(5-HT); cited from earlier work
ANR-L2 = assay: Fluorescence titration of ANR-L2 suspension with analyte, 1:1 single-site binding fit
Source text: (§1) This fitting procedure was used in favour of a Stern-Volmer analysis, because linearized binding plots are known to produce errors in Kd.
(§2) Herein, FA is the intensity at a given analyte concentration and F0 is the emission intensity before analyte addition. ΔF is a measure of the relative emission increase or decrease caused by the analyte. For fully non emissive AB complexes, i.e. when the analyte A is an efficient quencher, ΔF reaches -1. The quantity cA denotes the concentration of the analyte A and cB denotes the concentration of the "binding stations" in the ANR.
(§3) The values Kd and ΔF result from the non-least square fit given the input FA, F0, cA and cB.
(§4) The concentration cA of the analyte follows directly from the concentration of the stock solution and the added volume to the cuvette with the suspension of the ANR. The concentration cB of the single binding sites per ANR suspension is a priori not known. […] This so obtained value cB was then used as a constant for the fitting of the binding isotherms of the weaker binding analytes. […] In addition, it is reassuring to note that the value of the affinity constant Kd is rather insensitive to the concentration cB.

ANR1 = assay: Binding of tryptophan to ANR1 at acidic pH (data not shown); settings: pH <3
CB8-D1 = CB8-D1 (cucurbit[8]uril and dye D1), in water, read-out: Kd (affinity), cited from earlier work
ANR-L3 = assay: Fluorescence titration of ANR-L3 suspension with analyte, 1:1 single-site binding fit
Source text: as §1, §2, §3, §4

ANR-L4 = assay: Fluorescence titration of ANR-L4 suspension with analyte, 1:1 single-site binding fit
Source text: as §1, §2, §3, §4

ANR-Y2 = assay: Fluorescence titration of ANR-Y2 suspension with analyte, 1:1 single-site binding fit
Source text: as §1, §2, §3, §4

ANRs = settings: 100 µM concentration; ANR-Y2, ANR-L3 and ANR-L5
[2] = 10 mM HEPES buffer (pH 7.3), ANR 250 µg/mL, >> = less than 10% change in emission intensity at >50 molar excess of analyte, error less than ±20%, read-out: Kd(ANR-Y1)
[3] = 10 mM HEPES buffer (pH 7.3), ANR 250 µg/mL, >> = less than 10% change in emission intensity at >50 molar excess of analyte, error less than ±20%, read-out: Kd(ANR-L1)
[4] = ANR-Y1 250 µg/mL, 10 mM HEPES buffer (pH 7.3), read-out: single site dissociation constant Kd
[5] = ANR-L1 250 µg/mL, 10 mM HEPES buffer (pH 7.3) with 50 mM tryptophan added, read-out: Kd
[6] = read-out: single site dissociation constant Kd, ANR-Y2 250 µg/mL, 10 mM HEPES buffer (pH 7.3)
[7] = ANR-L3 250 µg/mL in 10 mM HEPES buffer, pH 7.3 (aqueous buffer)
[8] = stated for the larger-cavity zeolite-Y-based receptors, printed 'with ANR-L2'

SMILES | Kd (ANR-Y1; [2]) | Kd (ANR-L1; [3]) | also measured
N[C@@H](Cc1c[nH]c2ccccc12)C(=O)O [tryptophan (Trp), tryptophan] | > 1000 µM | > 1000 µM | binding to ANR1 (ANR1): binding; binding to ANR1 (ANR1; listed as trytophane): bind; Kd (CB8-D1): ~6.3 µM
NCC(=O)O [glycine (Gly), glycine] | > 1000 µM | > 1000 µM | –
CC(=O)OCC[N+](C)(C)C [acetylcholin] | > 1000 µM | > 1000 µM | –
NCCO [ethanolamine] | > 1000 µM | > 1000 µM | –
CCC(=O)Nc1ccc(Cl)c(Cl)c1 [propanil] | > 1000 µM | > 1000 µM | –
NC(=O)[C@@H](N)Cc1c[nH]c2ccccc12 [TrpNH2] | 0.11 µM | 32 µM | Kd (ANR-Y1; [4]): ~0.11 µM; Kd (CB8-D1; listed as TrpNF2): 2.2 µM; Kd (CB8-D1): ~2.2 µM; Kd (ANR-Y2; [6]): 2.7 µM
CN1CCCC1c1cccnc1 (stereo not drawn) [nicotine] | – | – | effect on emission intensity (ANRs): no appreciable effect
N[C@@H](CCC(=O)O)C(=O)O [glutamate] | > 1000 µM | > 1000 µM | –
NCCc1c[nH]c2ccccc12 [tryptamine] | 0.15 µM | 10 µM | Kd (ANR-L3; [7]): ~9 µM; Kd (ANR-L3; ANR-L3, neat chloroform (absence of acetic acid)): 15 µM; Kd (ANR-L3; read-out: single site dissociation constant Kd, ANR-L3 250 µg/mL, chloroform:acetic acid (99:1)): 4 µM; Kd (ANR-L1; [5]): 27 µM; factor weaker binding in the presence of 50 mM Trp than in the absence (ANR-L1): ~ 3; Kd (ANR-L1; read-out: single site dissociation constant Kd): 3 µM
NCCc1ccccc1 [phenethylamine] | – | – | Kd (ANR-L3; [7]): 190 µM; residual emission int. (ANR-L4; ANR-L4, at 25 µM of analyte): 75%; Kd (ANR-L4; ANR-L4, partial emission quenching): 19 µM
c1ccc2[nH]ccc2c1 [indole] | > 1000 µM | > 1000 µM | –
NCCc1c[nH]cn1 [histamine] | – | – | Kd (ANR-L3; [7]): 360 µM
NCCCCCN [cadaverine] | > 1000 µM | > 1000 µM | –
N[C@H](CO)C(=O)O [D-serine] | > 1000 µM | > 1000 µM | –
NC[C@H](O)c1ccc(O)c(O)c1 [norepinephrine] | 11 µM | 31 µM | Kd (ANR-L2; ANR-L2, zeolite-L based): 13 µM; Kd (ANR-L2; [8]): 26 µM
N[C@@H](Cc1c[nH]cn1)C(=O)O [histidine] | > 1000 µM | > 1000 µM | –
Nc1ncnc2c1ncn2[C@@H]1O[C@H](CO)[C@@H](O)[C@H]1O [adenosine] | > 1000 µM | > 1000 µM | –
CNC[C@H](O)c1ccc(O)c(O)c1 [epinephrine] | – | – | Kd (ANR-Y1; pH 7.3, read-out: Kd(ANR-Y1)): 26 µM; Kd (ANR-L1; pH 7.3, read-out: Kd(ANR-L1)): > 600 µM; Kd (ANR-L2; ANR-L2, zeolite-L based): 240 µM; Kd (ANR-L2; [8]): 39 µM

Continued, in another order:

Kd (ANR-Y1; [2]) | Kd (ANR-L1; [3]) | SMILES | also measured
55 µM | > 600 µM | CNC[C@H](O)c1cccc(O)c1 [phenylephrine] | –
0.07 µM | 3.3 µM | NCCc1c[nH]c2ccc(O)cc12 [serotonin (5-HT), serotonin] | Kd (ANR-Y1; [4]): 0.07 µM and ~0.07 µM; Kd (ANR-L1; [5]): 14 µM; Kd (ANR-L1; ANR-L1 250 µg/mL, ethanolic media (ethanol with 0.2 mM acetic acid), read-out: single site dissociation constant Kd): ~25 µM; Kd (ANR-L1; ANR-L1 250 µg/mL, water and aqueous buffer, read-out: single site dissociation constant Kd): ~3 µM; factor weaker binding in the presence of 50 mM Trp than in the absence (ANR-L1): ~ 4; Kd (ANR-L1; read-out: approximated dissociation constant (Kd = 1/slope), Stern-Volmer plot, ANR-L1): 4 µM; Kd [1]: ~15 µM; Kd (ANR-L2; read-out: approximated dissociation constant (Kd = 1/slope), Stern-Volmer plot, ANR-L2): 2 µM
11 µM | 40 µM | NCC(O)c1ccc(O)cc1 (stereo not drawn) [octopamine] | –
5.7 µM | 27 µM | NCCc1ccc(O)cc1 [tyramine] | quenching of the emission of ANR-L3 (ANR-L3; titration curve shows saturation behaviour): 30%
3.4 µM | 16 µM | NCCc1ccc(O)c(O)c1 [dopamine] | Kd (ANR-Y1; read-out: approximated dissociation constant (Kd = 1/slope), Stern-Volmer plot, ANR-Y1): 4 µM; Kd (ANR-L3; read-out: approximated dissociation constant (Kd = 1/slope), Stern-Volmer plot, ANR-L3): 15 µM; Kd (ANR-L1; [5]): 48 µM; factor weaker binding in the presence of 50 mM Trp than in the absence (ANR-L1): ~ 3; Kd (ANR-L4; read-out: approximated dissociation constant (Kd = 1/slope), Stern-Volmer plot, ANR-L4): 7 µM; Kd (ANR-Y2; read-out: approximated dissociation constant (Kd = 1/slope), Stern-Volmer plot, ANR-Y2): 10 µM; Kd (ANR-Y2; [6]): 9.5 µM
> 1000 µM | > 1000 µM | CC(=O)Nc1ccc(O)cc1 [paracetamol] | –
> 1000 µM | > 1000 µM | Oc1ccccc1O [catechol] | –
> 1000 µM | > 1000 µM | O=C(O)Cc1c[nH]c2ccccc12 [indole-3-acetic acid] | –
> 1000 µM | > 1000 µM | N[C@@H](Cc1ccccc1)C(=O)O [phenylalanine] | –
> 1000 µM | > 1000 µM | COc1ccc2[nH]cc(CCNC(C)=O)c2c1 [melatonin] | –
> 1000 µM | > 1000 µM | N[C@@H](Cc1ccc(O)cc1)C(=O)O [tyrosine] | –
> 1000 µM | > 1000 µM | CC(=O)CCc1ccc(O)cc1 [raspberry ketone] | –
> 1000 µM | > 1000 µM | N[C@@H](Cc1c[nH]c2ccc(O)cc12)C(=O)O [5-HTP] | –
> 1000 µM | > 1000 µM | N[C@@H](Cc1ccc(O)c(O)c1)C(=O)O [L-DOPA] | –
